Earlier results, collected in US20140148378A1, “ANTIBACTERIAL PEPTIDES” (THE REGENTS OF THE UNIVERSITY OF CALIFORNIA, priority 2012, published 2014).

What was measured:
[1] = from bioactive peptide databases / literature
[2] = lactoferricin versus human lactoferrin

Substance | Known activity of overlapping literature bioactive peptide [1] | bactericidal effects relative to the parent protein [2]
QELLLNPTHQYPVTQPLAPVHNPISV (listed as Homo sapiens) [SEQ ID NO: 506] | Antibacterial | –
lactoferricin | – | 10-100 times
YQRRPAIAINNPYVPRTYYANPAVVRPHAQIPQRQYLPNSHPPTVVRRPNLHPSF (listed as Homo sapiens) [SEQ ID NO: 504] | Antibacterial | –
QPTIPFFDPQIPK (listed as Homo sapiens) [SEQ ID NO: 505] | Immuno- | –
